The source of these data is patent publication EP0946545B1, “NOVEL CARBOXY SUBSTITUTED CYCLIC CARBOXAMIDE DERIVATIVES” (Aventis Pharmaceuticals Inc., priority 1996, dated 1998).

Where a name gives a salt, the structure may show the parent alone. Read-outs that look alike come from different tables or passages of the source.

For one test, the target named is T1, NK1 receptor (Cavia porcellus, UniProt P30547).
T1 construct: evaluated in guinea pig lungs (Keystone Biologicals, Cleveland, OH); tissue Keystone Biologicals, Cleveland, OH; host or cells: guinea pig lung membranes
Description: Antagonism of iodinated tachykinin binding to NK1 receptors (Example A). On the set-up: species or system guinea pig. How it is done:
(§1) One skilled in the art can determine the NK1 receptor and NK2 receptor affinity in vitro as follows. The NK1 receptor affinity of tachykinin antagonists is evaluated in guinea pig lungs (Keystone Biologicals, Cleveland, OH) and affinity for the NK2 receptor is evaluated in HSKR-1 cells (which are mouse 3T3 fibroblasts expressing the human jejunal NK2 receptor). Tissues or cells are homogenized with a Polytron in 15 volumes of 50 mM Tris-HC1 buffer (pH 7.4, 4°C) and centrifuged. The pellet is resuspended in Tris-HCl buffer and is centrifuged; the pellet is washed twice by resuspension. The final pellet is resuspended at a concentration of 40 mg/ml for tissues and 20 mg/ml for cells in incubation buffer and remains at room temperature for at least 15 min prior to use. Receptor binding is initiated by addition of 250 ul membrane preparation in duplicate to 0.1 nM of the following radioligands: ^125I-Bolton Hunter Lys-3 labeled substance P and ^125iodohistidyl-1-neurokinin A; in a final volume of 500 ul of buffer containing 50 mM Tris-HCl (pH 7.4 at room temperature), 0.1% bovine serum albumin, 2 mM mangenese chloride, 40 ug/ml bacitracin, 4 µg/ml leupeptin and chymostatin, 10 µM thiorphan and various doses of the putative tachykinin antagonists. Incubations are performed at room temperature for 90 min (NK1 receptor assays) or 2 hr (NK2 receptor assay); binding is terminated by addition of 50 mM Tris-HCl buffer (pH 7.4, 4°C) and filtration under vacuum through GF/B filters presoaked with 0.1% polyethyleneimine (NK1 receptor assays) or 0.5% bovine serum albumin (NK2 receptor assay). Filter bound radioactivity is quantitated in a gamma counter. Nonspecific binding is defined as binding in the presence of 1 µM substance P or neurokinin A. Specific binding is calculated by subtracting nonspecific binding from total binding. Competition of iodinated SP or NKA binding by test compounds or standards is expressed as a percentage of this maximum binding. IC50 values (concentration required to inhibit 50% of receptor binding) are generated for each of the test compounds by nonlinear regression using an iterative curve fitting program (GraphPAD Inplot, San Diego, CA).
(§2) Tackykinin receptor binding (IC50 values) for representative compounds of the present invention is found in Table 1. The values in Table 1 were determined by the method of present Example A and represent the mean of several experiments, except where noted. […]

For test [1], the target named is T2, human jejunal NK2 receptor (Homo sapiens, UniProt P21452).
T2 construct: expressed in transfected cells; host or cells: HSKR-1 cells (mouse 3T3 fibroblasts)
T2 sequence (P21452 1-398): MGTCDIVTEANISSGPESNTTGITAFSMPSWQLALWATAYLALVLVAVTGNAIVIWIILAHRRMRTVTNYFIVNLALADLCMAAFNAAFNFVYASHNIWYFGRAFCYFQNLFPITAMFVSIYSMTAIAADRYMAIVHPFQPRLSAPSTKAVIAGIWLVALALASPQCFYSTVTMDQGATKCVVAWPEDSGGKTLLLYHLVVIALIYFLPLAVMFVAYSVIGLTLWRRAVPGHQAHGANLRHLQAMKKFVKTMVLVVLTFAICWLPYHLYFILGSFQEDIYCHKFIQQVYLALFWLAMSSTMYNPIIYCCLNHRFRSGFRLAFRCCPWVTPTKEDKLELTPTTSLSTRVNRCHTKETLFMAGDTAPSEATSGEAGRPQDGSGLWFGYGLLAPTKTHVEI
The test is described as follows: Antagonism of iodinated tachykinin binding to NK2 receptors (Example A). How it is done:
as §1, §2

[2] abbreviates: read-out: Tachykinin Receptor Binding NK1 IC50, guinea pig lungs membranes, 0.1 nM 125I-Bolton Hunter Lys-3 labeled substance P, 90 min room temperature, mean of several experiments.
[3] abbreviates: read-out: Tachykinin Receptor Binding NK2 IC50, HSKR-1 cells (mouse 3T3 fibroblasts expressing the human jejunal NK2 receptor), 0.1 nM 125iodohistidyl-1-neurokinin A, 2 hr room temperature, mean of several experiments.

T1 sequence (P30547 whole entry): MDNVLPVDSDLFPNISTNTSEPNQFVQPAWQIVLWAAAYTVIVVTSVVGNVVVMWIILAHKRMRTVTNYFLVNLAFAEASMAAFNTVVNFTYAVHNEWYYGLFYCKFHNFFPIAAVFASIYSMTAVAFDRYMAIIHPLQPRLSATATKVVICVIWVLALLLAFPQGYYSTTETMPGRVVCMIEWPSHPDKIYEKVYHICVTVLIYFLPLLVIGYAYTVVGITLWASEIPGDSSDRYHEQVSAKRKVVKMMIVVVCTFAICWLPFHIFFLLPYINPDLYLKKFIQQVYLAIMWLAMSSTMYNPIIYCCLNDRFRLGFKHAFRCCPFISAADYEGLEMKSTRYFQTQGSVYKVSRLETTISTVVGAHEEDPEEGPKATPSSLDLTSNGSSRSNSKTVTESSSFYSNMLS

For the molecule `CCOC(=O)CN1CCN(C(=O)C2(c3ccccc3)CCN(CC[C@]3(c4ccc(Cl)c(Cl)c4)CCN(C(=O)c4cc(OC)c(OC)c(OC)c4)C3)CC2)CC1` [Example 8.3.1, (R)-1-(3,4,5-trimethoxvbenzoyl)-3-(2-(4-phenyl-4-((4-carboethoxymethylpiperazin-1-yl)carboxamido)piperidine)ethyl)-3-(3,4-dichlorophenyl)pyrrolidine hydrochloric acid salt], the IC50 on NK1 receptor stood at 7.7 nM; in test [1] it was 2.41 nM.

On to `CCN(CC)C(=O)COC(=O)CN1CCN(C(=O)C2(c3ccccc3)CCN(CC[C@]3(c4ccc(Cl)c(Cl)c4)CCN(C(=O)c4cc(OC)c(OC)c(OC)c4)C3)CC2)CC1` [Example 33.2, (R)-1-(3,4,5-trimethoxybenzoyl)-3-(2-(4-phenyl-4-((4-carbo(N,N-diethylcarboxamidomethoxy)methylpiperazin-1-yl)carboxamido)piperidine)ethyl)-3-(3,4-dichlorophenyl)pyrrolidine fumaric acid salt], for which the IC50 amounted to 3.95 nM on NK1 receptor (setting [2]) and 2.43 nM in test [1] (setting [3]).

Take `COc1ccc(-n2cnnn2)cc1C(=O)N1CC[C@](CCN2CCC(C(=O)N3CCN(CC(=O)O)CC3)(c3ccccc3)CC2)(c2ccc(Cl)c(Cl)c2)C1` [Example 11.1, (R)-1-(2-methoxy-5-(1H-tetrazol-1-yl)benzoyl)-3-(2-(4-phenyl-4-((4-carboxymethylpiperazin-1-yl)carboxamido)piperidin-1-yl)ethyl)-3-(3,4-dichlorophenyl)pyrrolidine hydrochloric acid salt]: the IC50 on NK1 receptor was 10.5 nM; in test [1], 70.7 nM.

Regarding `COc1cc(C(=O)N2CC[C@](CCN3CCC(C(=O)N4CCN(CC(=O)OCC(=O)N(C)CCN(C)C)CC4)(c4ccccc4)CC3)(c3ccc(Cl)c(Cl)c3)C2)cc(OC)c1OC` [Example 37.2, (R)-1-(3,4,5-Trimethoxybenzoyl)-3-(2-(4-phenyl-4-((4-carbo(N-methyl-N-(2-dimethylaminoethyl))carboxamidomethoxy)methylpiperazin-1-yl)carboxamido)piperidin-1-yl)ethyl)-3-(3,4-dichlorophenyl)pyrrolidine fumaric acid salt], the IC50 on NK1 receptor (setting [2]) was found to be 2.09 nM; in test [1] (setting [3]), 0.9 nM.

Turning to `COc1cc(C(=O)N2CC[C@](CCN3CCC(C(=O)N4CCN(CCC(=O)O)CC4)(c4ccccc4)CC3)(c3ccc(Cl)c(Cl)c3)C2)cc(OC)c1OC` [Example 28.2, (R)-1-(3,4,5-trimethoxybenzoyl)-3-(2-(4-phenyl-4-((4-carboxyethylpiperazin-1-yl)carboxamido)piperidine)ethyl)-3-(3,4-dichlorophenyl)pyrrolidine hydrochloric acid salt], the results for the IC50 (at NK1 receptor; in test [1]) were 19.6 nM and 3.73 nM, respectively.

On to `COc1cc(C(=O)N2CC[C@](CCN3CCC(C(=O)N4CCN(CCCC(=O)O)CC4)(c4ccccc4)CC3)(c3ccc(Cl)c(Cl)c3)C2)cc(OC)c1OC` [Example 30.2, (R)-1-(3,4,5-trimethoxybenzoyl)-3-(2-(4-phenyl-4-((4-carboxypropylpiperazin-1-yl)carboxamido)piperidine)ethyl)-3-(3,4-dichlorophenyl)pyrrolidine hydrochloric acid salt], for which the results for the IC50 (at NK1 receptor; in test [1]) were 3.4 nM and 3.6 nM, respectively.

Consider `CCOC(=O)CN1CCN(C(=O)C2(c3cccnc3)CCN(CC[C@]3(c4ccc(Cl)c(Cl)c4)CCN(C(=O)c4cc(OC)c(OC)c(OC)c4)C3)CC2)CC1` [Example 5.5, (R)-1-(3,4,5-trimethoxybenzoyl)-3-(2-(4-(pyrid-3-yl)-4-((4-carboethoxymethylpiperazin-1-yl)carboxamido)piperidin-1-yl)ethyl)-3-(3,4-dichlorophenyl)pyrrolidine hydrochloric acid salt], for which the IC50 was 6.38 nM at NK1 receptor and 2.5 nM in test [1].

On to `CCOC(=O)CN1CCN(C(=O)C2(c3ccccc3)CCN(CCC3(c4ccc(F)c(F)c4)CCN(C(=O)c4cc(OC)c(OC)c(OC)c4)C3)CC2)CC1` (stereo not shown) [Example 23.8, 1-(3,4,5-trimethoxvbenzoyl)-3-(2-(4-phenyl-4-((4-carboethoxymethylpiperazin-1-yl)carboxamido)piperidin-1-yl)ethyl)-3-(3,4-difluorophenyl)pyrrolidine hydrochloric acid salt], for which the IC50 at NK1 receptor was 8.41 nM; in test [1], 11.9 nM.

`COc1cc(C(=O)N2CC[C@](CCN3CCC(C(=O)N4CCC[C@H]4C(=O)O)(c4ccccc4)CC3)(c3ccc(Cl)c(Cl)c3)C2)cc(OC)c1OC` [Example 15.2, (R)-1-(3,4,5-trimethoxybenzonyl)-3-(2-(4-phenyl-4-(((S)-2-carboxypyrrolidin-1-yl)carboxamido)piperidin-1-yl)ethyl)-3-(3,4-dichlorophenyl)pyrrolidine hydrochloric acid salt]: the IC50 at NK1 receptor is 14 nM; in test [1] it was 17.4 nM.

For `CCOC(=O)CCN1CCN(C(=O)C2(c3ccccc3)CCN(CC[C@]3(c4ccc(Cl)c(Cl)c4)CCN(C(=O)c4cc(OC)c(OC)c(OC)c4)C3)CC2)CC1` [Example 27.3, (R)-1-(3,4,5-trimethoxvbenzoyl)-3-(2-(4-phenyl-4-((4-carboethoxyethylpiperazin-1-yl)carboxamido)piperidine)ethyl)-3-(3,4-dichlorophenyl)pyrrolidine hydrochloric acid salt], the results for the IC50 (at NK1 receptor; in test [1]) were 9.1 nM and 2.34 nM, respectively.

For `CCOC(=O)CN1CCN(C(=O)C2(c3ccccc3)CCN(CC[C@]3(c4ccc(Cl)c(Cl)c4)CCN(C(=O)c4cc(-n5cnnn5)ccc4OC)C3)CC2)CC1` [Example 10.4, (R)-1-(2-methoxy-5-(1H-tetrazol-1-yl)benzoyl)-3-(2-(4-phenyl-4-((4-carboethoxymethylpiperazin-1-yl)carboxamido)piperidine)ethyl)-3-(3,4-dichlorophenyl)pyrrolidine hydrochloric acid salt], the IC50 is 8.42 nM on NK1 receptor and 51.8 nM in test [1].

As for `COc1cc(C(=O)N2CC[C@](CCN3CCC(C(=O)N4CCOC(C(=O)O)C4)(c4ccccc4)CC3)(c3ccc(Cl)c(Cl)c3)C2)cc(OC)c1OC` (stereo partly drawn) [Example 26.1, (R)-1-(3,4,5-Trimethoxybenzoyl)-3-(2-(4-phenyl-4-((2-carboxymorpholin-4-yl)carboxamido)piperidin-1-yl)ethyl)-3-(3,4-dichlorophenyl)pyrrolidine], the IC50 was found to be 9.9 nM on NK1 receptor and 5.7 nM in test [1].

As for `COc1cc(C(=O)N2CC[C@](CCN3CCC(C(=O)N4CCC(C(=O)O)CC4)(c4ccccc4)CC3)(c3ccc(Cl)c(Cl)c3)C2)cc(OC)c1OC` [Example 22.1, (R)-1-(3,4,5-trimethoxybenzoyl)-3-(2-(4-phenyl-4-((4-carboxypiperidin-1-yl)carboxamido)piperidin-1-yl)ethyl)-3-(3,4-dichlorophenyl)pyrrolidine hydrochloric acid salt], the IC50 at NK1 receptor turned out to be 4.05 nM; in test [1], 6.29 nM.

For `COc1cc(C(=O)N2CC[C@@](CCN3CCC(C(=O)N4CCN(CC(=O)O)CC4)(c4ccccc4)CC3)(c3ccc(Cl)c(Cl)c3)C2)cc(OC)c1OC` [Example 13.3, (S)-1-(3,4,5-trimethoxybenzoyl)-3-(2-(4-phenyl-4-((4-carboxymethylpiperazin-l-yl)carboxamido)piperidine)ethyl)-3-(3,4-dichlorophenyl)pyrrolidine hydrochloric acid salt], the results for the IC50 (on NK1 receptor; in test [1]) were 5.63 nM and 3.13 nM, respectively.
